# According to the supplement of paper PMC11061612:
# How the values were obtained:
# Selumetinib = compound: Cn1cnc2c(F)c(Nc3ccc(Br)cc3Cl)c(C(=O)NOCCO)cc21 [Selumetinib]; settings: max 10 µM
# How it was run: (§1)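 After 24 hours at 37°C and 5% CO2 in 1536-well plates holding 7.5 μl of DMEM/F12 or RPMI with 10% FBS, cancer cell lines were dosed for 72 hours, with final DMSO typically 0.2%. Viability came from CellTiter-Glo 2.0 luminescence, scaled between the means of blank wells and DMSO wells. A non-linear mixed effects model fitted a two-parameter logistic curve to each dose response to give the single-agent IC50.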
# Savolitinib = compound: C[C@@H](c1ccc2nccn2c1)n1nnc2ncc(-c3cnn(C)c3)nc21 [Savolitinib]; settings: max 1 µM
# How it was run: as §1
# Crizotinib = compound: C[C@@H](Oc1cc(-c2cnn(C3CCNCC3)c2)cnc1N)c1c(Cl)ccc(F)c1Cl [Crizotinib]; settings: max 10 µM
# How it was run: as §1
# Taselisib = compound: Cc1nc(-c2cn3c(n2)-c2ccc(-c4cnn(C(C)(C)C(N)=O)c4)cc2OCC3)n(C(C)C)n1 [Taselisib]; settings: max 10 µM
# How it was run: as §1
# Dasatinib = compound: CC1=C(C(=CC=C1)Cl)NC(=O)C2=CN=C(S2)NC3=CC(=NC(=N3)C)N4CCN(CC4)CCO [Dasatinib]; settings: max 2 µM
# How it was run: as §1
# SG3199 = compound: CC1=CN2[C@@H](C1)C=NC3=CC(=C(C=C3C2=O)OC)OCCCCCOC4=C(C=C5C(=C4)N=C[C@@H]6CC(=CN6C5=O)C)OC [SG3199]; settings: max 0.001 µM
# How it was run: as §1
# SRA737 = compound: N#Cc1cnc(Nc2cc(NC[C@H]3CNCCO3)c(C(F)(F)F)cn2)cn1 [SRA737]; settings: max 10 µM
# How it was run: as §1
# Olaparib = compound: O=C(c1cc(Cc2n[nH]c(=O)c3ccccc23)ccc1F)N1CCN(C(=O)C2CC2)CC1 [Olaparib]; settings: max 10 µM
# How it was run: as §1
# 5-Fluorouracil = compound: O=c1[nH]cc(F)c(=O)[nH]1 [5-Fluorouracil]; settings: max 20 µM
# How it was run: as §1
# Prexasertib = compound: COc1cccc(OCCCN)c1-c1cc(Nc2cnc(C#N)cn2)n[nH]1 [Prexasertib]; settings: max 1 µM
# How it was run: as §1
# AZD5363 = compound: C1CN(CCC1(C(=O)N[C@@H](CCO)C2=CC=C(C=C2)Cl)N)C3=NC=NC4=C3C=CN4 [AZD5363]; settings: max 10 µM
# How it was run: as §1
# AZD2811 = compound: CCN(CCO)CCCOc1ccc2c(Nc3cc(CC(=O)Nc4cccc(F)c4)[nH]n3)ncnc2c1 [AZD2811]; settings: max 1 µM
# How it was run: as §1
# Etoposide = compound: COc1cc([C@@H]2c3cc4c(cc3[C@@H](O[C@@H]3O[C@@H]5CO[C@@H](C)O[C@H]5[C@H](O)[C@H]3O)[C@H]3COC(=O)[C@H]23)OCO4)cc(OC)c1O [Etoposide]; settings: max 10 µM
# How it was run: as §1
# Palbociclib = compound: CC(=O)c1c(C)c2cnc(Nc3ccc(N4CCNCC4)cn3)nc2n(C2CCCC2)c1=O [Palbociclib]; settings: max 10 µM
# How it was run: as §1
# Trametinib = compound: CC(=O)Nc1cccc(-n2c(=O)n(C3CC3)c(=O)c3c(Nc4ccc(I)cc4F)n(C)c(=O)c(C)c32)c1 [Trametinib]; settings: max 1 µM
# How it was run: as §1
# Doxorubicin = compound: COc1cccc2c1C(=O)c1c(O)c3c(c(O)c1C2=O)C[C@@](O)(C(=O)CO)C[C@@H]3O[C@H]1C[C@H](N)[C@H](O)[C@H](C)O1 [Doxorubicin]; settings: max 1 µM
# How it was run: as §1
# MK-2206 = compound: NC1(c2ccc(-c3nc4ccn5c(=O)[nH]nc5c4cc3-c3ccccc3)cc2)CCC1 [MK-2206]; settings: max 10 µM
# How it was run: as §1
# AZD6738 = compound: C[C@@H]1COCCN1C2=NC(=NC(=C2)C3(CC3)[S@](=N)(=O)C)C4=C5C=CNC5=NC=C4 [AZD6738]; settings: max 10 µM
# How it was run: as §1
# Gefitinib = compound: COc1cc2ncnc(Nc3ccc(F)c(Cl)c3)c2cc1OCCCN1CCOCC1 [Gefitinib]; settings: max 10 µM
# How it was run: as §1
# Alisertib = compound: COc1cc(Nc2ncc3c(n2)-c2ccc(Cl)cc2C(c2c(F)cccc2OC)=NC3)ccc1C(=O)O [Alisertib]; settings: max 10 µM
# How it was run: as §1
# AZD8186 = compound: C[C@@H](Nc1cc(F)cc(F)c1)c1cc(C(=O)N(C)C)cc2c(=O)cc(N3CCOCC3)oc12 [AZD8186]; settings: max 10 µM
# How it was run: as §1
# Lapatinib = compound: CS(=O)(=O)CCNCc1ccc(-c2ccc3ncnc(Nc4ccc(OCc5cccc(F)c5)c(Cl)c4)c3c2)o1 [Lapatinib]; settings: max 10 µM
# How it was run: as §1
# AZD5153 = compound: COc1nnc2ccc(N3CCC(c4ccc(OCCN5CCN(C)C(=O)[C@H]5C)cc4)CC3)nn12 [AZD5153]; settings: max 1 µM
# How it was run: as §1
# AZD1775 = compound: C=CCn1c(=O)c2cnc(Nc3ccc(N4CCN(C)CC4)cc3)nc2n1-c1cccc(C(C)(C)O)n1 [AZD1775]; settings: max 3 µM
# How it was run: as §1
# Carboplatin = compound: C1CC(C1)(C(=O)[O-])C(=O)[O-].N.N.[Pt+2] [Carboplatin]; settings: max 10 µM
# How it was run: as §1
# AZD0156 = compound: CN(C)CCCOc1ccc(-c2ccc3ncc4c(c3c2)n(C2CCOCC2)c(=O)n4C)cn1 [AZD0156]; settings: max 3 µM
# How it was run: as §1
# AZD7648 = compound: Cc1cc2ncnn2cc1Nc1ncc2c(n1)n(C1CCOCC1)c(=O)n2C [AZD7648]; settings: max 10 µM
# How it was run: as §1
# AZD5991 = compound: Cc1c2c(nn1C)CSCc1cc(n(C)n1)CSc1cc(c3ccccc3c1)OCCCc1c(C(=O)O)n(C)c3c-2c(Cl)ccc13 [AZD5991]; settings: max 1 µM
# How it was run: as §1
# AZD4320 = compound: CN(CC[C@H](CSC1=CC=CC=C1)NC2=C(C=C(C=C2)S(=O)(=O)NC(=O)C3=CC=C(C=C3)N4CCC(CC4)[C@H](C5=CC=CC=C5C6=CC=C(C=C6)Cl)O)S(=O)(=O)C(F)(F)F)CCO [AZD4320]; settings: max 1 µM
# How it was run: as §1
# Gemcitabine = compound: Nc1ccn([C@@H]2O[C@H](CO)[C@@H](O)C2(F)F)c(=O)n1 [Gemcitabine]; settings: max 0.3 µM
# How it was run: as §1
# [1] = compound: O=C(Nc1ccc2[nH]nc(-c3ccncc3)c2c1)[C@@H]1CCN(CC(=O)N2CCN(c3ccc(-c4ncccn4)cc3)CC2)C1; settings: max 5 µM
# How it was run: as §1
# Paclitaxel = compound: CC(=O)O[C@H]1C(=O)[C@@]2(C)[C@H]([C@H](OC(=O)c3ccccc3)[C@]3(O)C[C@H](OC(=O)[C@H](O)[C@@H](NC(=O)c4ccccc4)c4ccccc4)C(C)=C1C3(C)C)[C@]1(OC(C)=O)CO[C@@H]1C[C@@H]2O [Paclitaxel]; settings: max 3 µM
# How it was run: as §1
# Venetoclax = compound: CC1(C)CCC(CN2CCN(c3ccc(C(=O)NS(=O)(=O)c4ccc(NCC5CCOCC5)c([N+](=O)[O-])c4)c(Oc4cnc5[nH]ccc5c4)c3)CC2)=C(c2ccc(Cl)cc2)C1 [Venetoclax]; settings: max 1 µM
# How it was run: as §1
# SN-38 = compound: CCc1c2c(nc3ccc(O)cc13)-c1cc3c(c(=O)n1C2)COC(=O)[C@]3(O)CC [SN-38]; settings: max 0.3 µM
# How it was run: as §1
# AZD1390 = compound: CC(C)n1c(=O)n(C)c2cnc3cc(F)c(-c4ccc(OCCCN5CCCCC5)nc4)cc3c21 [AZD1390]; settings: max 0.3 µM
# How it was run: as §1
Cell Line,"IC50, cell viability 72 h (Selumetinib) [nM]","IC50, cell viability 72 h (Savolitinib) [nM]","IC50, cell viability 72 h (Crizotinib) [nM]","IC50, cell viability 72 h (Taselisib) [nM]","IC50, cell viability 72 h (Dasatinib) [nM]","IC50, cell viability 72 h (SG3199) [nM]","IC50, cell viability 72 h (SRA737) [nM]","IC50, cell viability 72 h (Olaparib) [nM]","IC50, cell viability 72 h (5-Fluorouracil) [nM]","IC50, cell viability 72 h (Prexasertib) [nM]","IC50, cell viability 72 h (AZD5363) [nM]","IC50, cell viability 72 h (AZD2811) [nM]","IC50, cell viability 72 h (Etoposide) [nM]","IC50, cell viability 72 h (Palbociclib) [nM]","IC50, cell viability 72 h (Trametinib) [nM]","IC50, cell viability 72 h (Doxorubicin) [nM]","IC50, cell viability 72 h (MK-2206) [nM]","IC50, cell viability 72 h (AZD6738) [nM]","IC50, cell viability 72 h (Gefitinib) [nM]","IC50, cell viability 72 h (Alisertib) [nM]","IC50, cell viability 72 h (AZD8186) [nM]","IC50, cell viability 72 h (Lapatinib) [nM]","IC50, cell viability 72 h (AZD5153) [nM]","IC50, cell viability 72 h (AZD1775) [nM]","IC50, cell viability 72 h (Carboplatin) [nM]","IC50, cell viability 72 h (AZD0156) [nM]","IC50, cell viability 72 h (AZD7648) [nM]","IC50, cell viability 72 h (AZD5991) [nM]","IC50, cell viability 72 h (AZD4320) [nM]","IC50, cell viability 72 h (Gemcitabine) [nM]","IC50, cell viability 72 h [1] [nM]","IC50, cell viability 72 h (Paclitaxel) [nM]","IC50, cell viability 72 h (Venetoclax) [nM]","IC50, cell viability 72 h (SN-38) [nM]","IC50, cell viability 72 h (AZD1390) [nM]"
RCM-1 (Colorectal Carcinoma),2570,> 1000,> 10000,9940,> 2000,> 1,> 10000,> 10000,> 20000,23.2,> 10000,> 1000,> 10000,> 10000,31.8,> 1000,> 10000,2610,> 10000,> 10000,> 10000,> 10000,506,1790,> 10000,> 3000,> 10000,> 1000,> 1000,> 300,2150,> 3000,> 1000,35.4,> 300
REH (B-Lymphoblastic Leukemia),> 10000,> 1000,4210,3310,> 2000,> 1,> 10000,> 10000,> 20000,24.8,> 10000,218,834,6850,> 1000,94.9,4580,5790,> 10000,1620,9640,> 10000,834,727,> 10000,> 3000,> 10000,723,56.4,15.6,> 5000,5.44,211,4.21,> 300
RKN (Other Solid Carcinomas),> 10000,> 1000,> 10000,> 10000,1740,> 1,> 10000,> 10000,> 20000,267,> 10000,> 1000,> 10000,> 10000,> 1000,> 1000,> 10000,> 10000,> 10000,> 10000,> 10000,> 10000,> 1000,2300,> 10000,> 3000,> 10000,> 1000,> 1000,> 300,> 5000,40.8,> 1000,> 300,> 300
SF539 (Glioblastoma),> 10000,> 1000,9820,3750,1630,> 1,1930,> 10000,14500,8.82,3270,> 1000,2140,> 10000,> 1000,351,9370,2050,> 10000,4930,> 10000,> 10000,370,185,> 10000,> 3000,> 10000,> 1000,> 1000,23.9,3220,7.53,> 1000,18.9,> 300
SHP-77 (Small Cell Lung Carcinoma),> 10000,> 1000,> 10000,> 10000,> 2000,> 1,> 10000,> 10000,14800,102,> 10000,> 1000,> 10000,> 10000,> 1000,> 1000,> 10000,> 10000,> 10000,> 10000,> 10000,> 10000,> 1000,1800,> 10000,> 3000,> 10000,> 1000,> 1000,169,> 5000,76.3,> 1000,> 300,> 300
